The numbers were not newly measured in US11077045B2, “Blood microperfusion to skin by Shilajit” (Natreon, Inc., priority 2018, dated 2021), which cites them from elsewhere.

The conditions of data set [1]: transdermal preparation, subjects with diabetes.
For data set [2] the following is noted: low-dose administration, rats.

Consider `N=C(N)NCCC[C@H](N)C(=O)O` [L-arginine], for which the “blood flow in feet” value in data set [1] is “improved”. Also, the “microperfusion of rat skin” value in data set [2] is recorded as “increase microperfusion”.
